“Also recorded” adds a separate entry of the source. Like-named read-outs stand apart in the source and are kept apart here.
What was measured:
BaAG2 [1] = biological target: T1, BaAG2 (Blastobotrys adeninivorans, UniProt Z9CO09ION3); assay: Substrate specificity of BaAG2 on 100 mM sugars and 1 mM pNPG; format: biochemical; conditions: 100 mM sugars, pH 6.5, 30 °C
T1 sequence (Z9CO09ION3 1-580): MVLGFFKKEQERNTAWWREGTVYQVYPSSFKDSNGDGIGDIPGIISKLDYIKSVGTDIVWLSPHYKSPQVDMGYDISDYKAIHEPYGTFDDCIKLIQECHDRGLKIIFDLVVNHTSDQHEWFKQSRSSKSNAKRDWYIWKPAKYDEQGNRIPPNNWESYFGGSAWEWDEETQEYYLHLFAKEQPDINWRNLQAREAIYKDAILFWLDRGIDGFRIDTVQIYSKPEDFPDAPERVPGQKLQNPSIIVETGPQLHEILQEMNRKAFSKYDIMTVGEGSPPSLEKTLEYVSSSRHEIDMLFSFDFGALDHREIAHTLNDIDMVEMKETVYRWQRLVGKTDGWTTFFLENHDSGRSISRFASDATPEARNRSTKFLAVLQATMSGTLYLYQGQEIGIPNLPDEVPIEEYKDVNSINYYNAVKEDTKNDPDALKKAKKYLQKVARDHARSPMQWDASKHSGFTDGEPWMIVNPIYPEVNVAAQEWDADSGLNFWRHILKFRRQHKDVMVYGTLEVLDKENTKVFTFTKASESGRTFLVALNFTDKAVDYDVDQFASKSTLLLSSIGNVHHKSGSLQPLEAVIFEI
Procedure: Hydrolysis of pNPG was assayed as in [16, 40] according to the release of p-nitrophenol. 100 mM K-phosphate buffer (pH 6.5) was used and reactions were conducted at 30 °C if not stated otherwise. The purified enzyme was unstable if diluted therefore 5 g/L bovine serum albumin (BSA) was added to the dilution buffer as a protein stabilizer to retain its full catalytic activity. […] The content of the released glucose was determined spectrophotometrically as in [16, 47]. The activities (µmoles of glucose released per minute per mg of protein; U/mg) were calculated from initial velocities of the reaction. For kinetic analysis, initial rates of p-nitrophenol or glucose release from substrates were measured at four to seven concentrations ranging from 0.1–3.0 mM for pNPG and 2.5–250 mM for di- and trisaccharides. At least three independent measurements for each substrate and concentration were made. BaAG2 content in reaction mixtures ranged from 0.02 to 3.5 µg/mL. […] The theoretical Mw value of 67,901 Da for the kcat calculation was computed in ExPASy Proteomics Server (http://expasy.org).

[2] = test system: B. adeninivorans CBS 8244; design: method as in earlier work; conditions: CBS-KNAW culture collection; cited from earlier work
[3] = test system: α-glucosidase of A. niger; design: method as in doi:10.1271/bbb1961.55.2327; conditions: on maltose; cited from earlier work
[4] = test system: extracellular α-glucosidase of Schizosaccharomyces pombe; conditions: on maltose; cited from earlier work
BaAG2 [5] = biological target: T1, BaAG2; assay: Inhibition of pNPG hydrolysis by BaAG2
Procedure: (§1) 100 mM K-phosphate buffer (pH 6.5) was used and reactions were conducted at 30 °C if not stated otherwise. The purified enzyme was unstable if diluted therefore 5 g/L bovine serum albumin (BSA) was added to the dilution buffer as a protein stabilizer to retain its full catalytic activity. […] The content of the released glucose was determined spectrophotometrically as in [16, 47]. The activities (µmoles of glucose released per minute per mg of protein; U/mg) were calculated from initial velocities of the reaction. […] At least three independent measurements for each substrate and concentration were made.
The Ki values were calculated using enzyme kinetics module of the SigmaPlot (Systat Software, San Jose, CA, USA).

B. adeninivorans = assay: Growth of B. adeninivorans on sugars (OD 600 nm); format: cell-based, Blastobotrys adeninivorans; conditions: YNB medium, 2 g/L sugar, 24 h, 37 °C
Procedure: Blastobotrys (Arxula) adeninivorans LS3 (CBS 8244) was kindly provided by Assoc. Prof. V. Passoth (SLU, Uppsala, Sweden). The yeast strain was grown on solid YPD medium (20 g/L peptone, 20 g/L glucose, 10 g/L yeast extract, 20 g/L agar) at 30 °C 24 h for harvesting the cells for genomic DNA extraction. E. coli DH5α (Thermo Fisher Scientific, Waltham, MA, USA) was used for DNA cloning and plasmid production. E. coli BL21 (DE3) was used for heterologous expression of BaAG2. The ability of B. adeninivorans to grow on sugars was assayed as in [12]. Yeast cells grown overnight on BD Difco YNB medium (Thermo Fisher Scientific, Waltham, MA, USA) without amino acids containing 2 g/L glucose were used as inoculum. […] The cells were incubated on Greiner 96-well flat-bottom transparent polystyrene microplates (Greiner Bio-One, Frickenhausen, Germany) in 200 µl under agitation for 24 h at 37 °C. Optical density of the culture at 600 nm was measured against inoculated medium without sugar at the beginning and end of the experiment using an Infinite M200 PRO microplate reader (Tecan Group Ltd., Männedorf, Switzerland) equipped with Tecan i-control v. 1.7 software from the same provider. Two independent experiments with two parallel measurements were conducted.

BaAG2 [6] = biological target: T1, BaAG2; assay: Kinetics of hydrolysis of pNPG and sugars by BaAG2; conditions: for Km: read-out: Km ± SD; for Km / Vmax ± SD / kcat ± SD: substrate hydrolysis, pH 6.5, 30 °C; for kcat ± SD: calculated from Vmax with Mw 67,901 Da
Procedure: as §1

BaAG2 [7] = biological target: T1, BaAG2; assay: Degradation of glucose polymers by BaAG2 (glucose release, TLC); format: biochemical; conditions: polysaccharide 5 g/L, 20 µg/mL enzyme
Procedure: Polysaccharide concentration in the reaction mixture was 5 g/L, and 20 µg/mL of the enzyme was used. At desired time points (2 h, 24 h, 74/96 h) aliquots were withdrawn and heated to stop the reaction. A negative control containing 20 µg/mL BSA instead of the enzyme was incubated alongside. Concentration of released glucose was measured as described above and 3 µl of the samples were analysed on TLC. Maltase from S. cerevisiae (ScMAL62), amyloglycosidase from Aspergillus niger (Sigma-Aldrich, Merck, Darmstadt, Germany) and α-amylase from Aspergillus oryzae (Sigma-Aldrich, Merck, Darmstadt, Germany) were reacted with tested glucose polymers for comparison.

BaAG2 [8] = biological target: T1, BaAG2; assay: TLC assay of panose hydrolysis by BaAG2; conditions: 50 mM panose, extended (22 h) reaction time
Procedure: The reaction samples were analyzed using TLC.
To visualize hydrolysis and polymerization products, the TLC analysis was conducted as in [16] on Silica Gel 60 F254 plates with concentrating zone (Merck, Darmstadt, Germany). 0.5 µl of the stopped reaction mixture were spotted onto the plate and sugars were separated with two runs in chloroform:acetic acid:water (6:7:1, v:v:v) [67]. For the analysis of products of polysaccharide degradation, 3 µl of the reaction mixtures were spotted. Sugars were visualized by immersion of the plates in aniline-diphenylamine reagent and subsequent heating of the dried plates at 100 °C [68].

BaAG2 [9] = biological target: T1, BaAG2; assay: Differential scanning fluorimetry (DSF) thermostability of BaAG2 with ligands; format: binding; conditions: 2 µM BaAG2, unliganded Tm 51 °C; 100 mM fructose, 50 mM palatinose, 50 mM glucose, 5 mM Tris, 5 mM acarbose; HEPES pH 7.0
Procedure: The reaction was conducted in 50 mM 4-(2-hydroxyethyl)-1-piperazineethanesulfonic acid) (HEPES) buffer (pH 7.0) with 150 mM NaCl. […] At least two independent experiments were performed with two technical replicates.

**Q.** Which results are given for `OC[C@H]1O[C@H](O[C@H]2[C@H](O)[C@@H](O)C(O)O[C@@H]2CO)[C@H](O)[C@@H](O)[C@@H]1O` (mixture of isomers) [Maltose]?
**A.** hydrolysis by BaAG2 (BaAG2 [1]): could hydrolyze; assimilation by B. adeninivorans CBS 8244 [2]: assimilates; Catalytic constant (kcat) [3]: 144 s⁻¹; kcat [4]: 709 s⁻¹

**Q.** With `C[C@H]1O[C@H](O[C@H]2[C@H](O)[C@@H](O)[C@@H](O[C@H]3[C@H](O)[C@@H](O)C(O)O[C@@H]3CO)O[C@@H]2CO)[C@H](O)[C@@H](O)[C@@H]1N[C@H]1C=C(CO)[C@@H](O)[C@H](O)[C@H]1O` (stereo partly shown) [Acarbose, reference compound] as the molecule, how does the Ki (BaAG2 [5]; read-out: Ki ± SD, values marked * are given in µM, pH 6.5, 30 °C) read?
**A.** Its Ki is 0.83 ± 0.01 µM.

**Q.** What about the Ki (BaAG2 [5]; read-out: Ki ± SD, values marked * are given in µM, pH 6.5, 30 °C, listed as acarbose) of the same molecule?
**A.** Its Ki is 0.8 µM.

**Q.** For `O=C(CO)[C@@H](O[C@H]1O[C@H](CO)[C@@H](O)[C@H](O)[C@H]1O)[C@H](O)[C@H](O)CO` [Turanose], which “hydrolysis by BaAG2” value (BaAG2 [1]) is on record?
**A.** Its value is “could hydrolyze”.

**Q.** And the “growth of B. adeninivorans on sugar” value (B. adeninivorans)?
**A.** The value was “new growth substrates”.

**Q.** What about the Km (BaAG2 [6]) of the same molecule?
**A.** Its Km is 45.2 ± 6 mM.

**Q.** And the “Vmax ± SD” value (BaAG2 [6])?
**A.** Its value is 190.1 ± 10.4 µmol/mg/min.

**Q.** And the “kcat ± SD” value (BaAG2 [6])?
**A.** The value was 215.1 ± 11.9 s⁻¹.

**Q.** Which results are given for Maltulose?
**A.** hydrolysis by BaAG2 (BaAG2 [1]): could hydrolyze; growth of B. adeninivorans on sugar (B. adeninivorans): new growth substrates; Km (BaAG2 [6]): 7.8 ± 1 mM; Vmax ± SD (BaAG2 [6]): 52.2 ± 1.8 µmol/mg/min; kcat ± SD (BaAG2 [6]): 59.1 ± 2.1 s⁻¹

**Q.** Which “Inhibition Mode” value (BaAG2 [5]) does the source give for `O=C(CO)[C@@H](O)[C@H](O)[C@H](O)CO` [Fructose] here?
**A.** The value was “Competitive”.

**Q.** For Maltotriose, which “hydrolysis by BaAG2” value (BaAG2 [1]) is on record?
**A.** The value was “could hydrolyze”.

**Q.** And the “growth of B. adeninivorans on sugar” value (B. adeninivorans)?
**A.** Its value is “new growth substrates”.

**Q.** With amylopectin as the molecule, how does the glucose released (BaAG2 [7]; by 24 h) read?
**A.** Its glucose released is 0.1 g/L.

**Q.** What about the glucose released (BaAG2 [7]; by 72 h) of the same molecule?
**A.** Its glucose released is 0.3 g/L.

**Q.** For `OC[C@H]1O[C@H](O[C@H]2O[C@H](CO)[C@@H](O)[C@H](O)[C@H]2O)[C@H](O)[C@@H](O)[C@@H]1O` [trehalose], which “assimilation by B. adeninivorans CBS 8244” value (“assimilation” below) [2] is on record?
**A.** The value was “assimilates”.

**Q.** Which “hydrolysis by BaAG2” value (BaAG2 [1]) does the source give for `OC[C@H]1O[C@H](OC[C@H]2OC(O)(CO)[C@@H](O)[C@@H]2O)[C@H](O)[C@@H](O)[C@@H]1O` (stereo partly shown) [Palatinose] here?
**A.** Its value is “not hydrolyzed; also recorded: could not hydrolyze”.

**Q.** What about the “growth of B. adeninivorans on sugar” value (B. adeninivorans) of the same molecule?
**A.** Its value is “new growth substrates”.

**Q.** For `OC[C@H]1O[C@H](OC[C@H]2O[C@H](O[C@H]3[C@H](O)[C@@H](O)C(O)O[C@@H]3CO)[C@H](O)[C@@H](O)[C@@H]2O)[C@H](O)[C@@H](O)[C@@H]1O` (stereo partly drawn) [panose, α-D-Glc-(1→6)-α-D-Glc-(1→4)-D-Glc], which “hydrolysis by BaAG2” value (BaAG2 [8]) is on record?
**A.** The value was “not hydrolyzed”.

**Q.** What does the source list for `O=[N+]([O-])c1ccc(O[C@@H]2O[C@H](CO)[C@H](O)[C@H](O)[C@H]2O)cc1` [pNPG, p-nitrophenyl-α-D-glucopyranoside, reference compound]?
**A.** hydrolysis by BaAG2 (BaAG2 [1]): could hydrolyze; Vmax (BaAG2 [6]): over 750 U/mg; Km (BaAG2 [6]): 0.76 ± 0.03 mM; Vmax ± SD (BaAG2 [6]): 751.3 ± 14.5 µmol/mg/min; kcat ± SD (BaAG2 [6]): 850.2 ± 16.4 s⁻¹

**Q.** What does the source list for `OC[C@H]1O[C@@](CO)(O[C@H]2O[C@H](CO)[C@@H](O)[C@H](O)[C@H]2O)[C@@H](O[C@H]2O[C@H](CO)[C@@H](O)[C@H](O)[C@H]2O)[C@@H]1O` [Melezitose]?
**A.** hydrolysis by BaAG2 (BaAG2 [1]): could hydrolyze; assimilation by B. adeninivorans CBS 8244 [2]: assimilates; Vmax ± SD (BaAG2 [6]): 231.0 ± 31.8 µmol/mg/min; kcat ± SD (BaAG2 [6]): 261.4 ± 36.1 s⁻¹

**Q.** Which “hydrolysis by BaAG2” value (BaAG2 [1]) does the source give for `CO[C@H]1O[C@H](CO)[C@@H](O)[C@H](O)[C@H]1O` [α-MG, α-methylglucoside, reference compound] here?
**A.** Its value is “could not hydrolyze”.

**Q.** What about the “hydrolysis by BaAG2” value (BaAG2 [1]; listed as α-methylglucoside) of the same molecule?
**A.** Its value is “not hydrolyzed”.

**Q.** And the “assimilation” value [2]?
**A.** Its value is “assimilates”.

**Q.** And the “Inhibition Mode” value (BaAG2 [5])?
**A.** The value was “Competitive”.

**Q.** What does the source list for `OC[C@H]1O[C@H](OC[C@H]2OC(O)[C@H](O)[C@@H](O)[C@@H]2O)[C@H](O)[C@@H](O)[C@@H]1O` (stereo partly shown) [Isomaltose]?
**A.** hydrolysis by BaAG2 (BaAG2 [1]): not hydrolyzed; hydrolysis by BaAG2 (BaAG2 [1]; listed as isomaltose): could not hydrolyze; growth of B. adeninivorans on sugar (B. adeninivorans): new growth substrates; Inhibition Mode (BaAG2 [5]): Competitive

**Q.** With `OC[C@H]1OC(O)[C@H](O)[C@@H](O)[C@@H]1O` (stereo partly shown) [Glucose] as the molecule, how does the “increase of Tm in the presence of a ligand” value (BaAG2 [9]) read?
**A.** The value was 4.4 °C.

**Q.** And the “Inhibition Mode” value (BaAG2 [5])?
**A.** The value was “Competitive”.

**Q.** For `OC[C@H]1O[C@@](CO)(O[C@H]2O[C@H](CO)[C@@H](O)[C@H](O)[C@H]2O)[C@@H](O)[C@@H]1O` [Sucrose, α-D-Glc-(1→2)-β-D-Fru], which “hydrolysis by BaAG2” value (BaAG2 [1]) is on record?
**A.** Its value is “could hydrolyze”.

**Q.** And the “assimilation” value [2]?
**A.** Its value is “assimilates”.

Source: article PMC6981392, “Characterization of a Maltase from an Early-Diverged Non-Conventional Yeast Blastobotrys adeninivorans” (International Journal of Molecular Sciences, 2019)
